This test addresses T1, Aromatase (Homo sapiens, UniProt P11511).
T1 sequence (P11511 whole entry): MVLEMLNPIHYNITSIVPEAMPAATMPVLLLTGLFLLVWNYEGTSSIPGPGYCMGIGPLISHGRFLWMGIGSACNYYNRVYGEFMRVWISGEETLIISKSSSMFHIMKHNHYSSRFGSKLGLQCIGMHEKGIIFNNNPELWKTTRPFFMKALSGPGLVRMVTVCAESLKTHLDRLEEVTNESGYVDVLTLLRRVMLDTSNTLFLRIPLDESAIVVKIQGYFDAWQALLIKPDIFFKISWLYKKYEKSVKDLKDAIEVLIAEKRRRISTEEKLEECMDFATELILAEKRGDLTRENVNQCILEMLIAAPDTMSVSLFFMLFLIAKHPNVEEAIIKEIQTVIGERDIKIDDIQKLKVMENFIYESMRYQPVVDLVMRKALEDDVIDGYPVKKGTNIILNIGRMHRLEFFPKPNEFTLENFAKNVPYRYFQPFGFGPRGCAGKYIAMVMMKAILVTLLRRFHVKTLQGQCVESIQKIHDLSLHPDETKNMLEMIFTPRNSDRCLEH

The record followed here is ChEMBL document CHEMBL3751755, “Developing steroidal aromatase inhibitors-an effective armament to win the battle against breast cancer” (Eur J Med Chem, 2015).

One may read the Ki as the equilibrium dissociation constant of an inhibitor or competing ligand from its target.

Regarding `CC(=O)O[C@@H]1C[C@@H]2[C@H](CC[C@]3(C)C(=O)CC[C@@H]23)[C@@]2(C)CCCC=C12`, the Ki is 0.012 µM.

In turn, `C[C@]12CC[C@@H]3c4cc(Br)c(O)cc4CC[C@H]3[C@@H]1CCC2=O` had an inhibitory constant (Ki) of 0.1 µM.

`C[C@]12CC[C@@H]3c4ccc(O)cc4[C@H](CCCc4ccccc4)C[C@H]3[C@@H]1CC[C@@H]2O` returned a Ki of 0.1 µM.

On to `C[C@]12CCC(=O)C=C1CC[C@@H]1[C@@H]2CC[C@]2(C)C(=O)CC[C@@H]12` [ANDROSTENEDIONE], for which the affinity, expressed as Ki, was 0.035 µM.

On to `CC1(C)C[C@@]2(C)C(=CC1=O)[C@@H](Br)C[C@@H]1[C@@H]2CC[C@]2(C)C(=O)CC[C@@H]12`, for which the Ki came out at 0.014 µM.

As for `C[C@]12CCC=CC1=CC[C@@H]1[C@@H]2CC[C@]2(C)C(=O)CC[C@@H]12`, the Ki came out at 0.058 µM.

In the case of `C[C@]12CCC(=O)C=C1C(c1ccc(O)cc1)=C[C@@H]1[C@@H]2CC[C@]2(C)C(=O)CC[C@@H]12`, the affinity, expressed as Ki, was 0.023 µM.

With `C[C@]12C=CC(=O)C=C1C(c1ccc(O)cc1)=C[C@@H]1[C@@H]2CC[C@]2(C)C(=O)CC[C@@H]12`, affinity was put at a Ki of 0.075 µM.

In turn, `CCCCC[C@@H]1C[C@@H]2[C@H](CC[C@]3(C)C(=O)CC[C@@H]23)[C@@]2(C)CCC(=O)C=C12` registered a Ki of 0.0028 µM.

As to `CCCCCCCC1=C[C@@H]2[C@H](CC[C@]3(C)C(=O)CC[C@@H]23)[C@@]2(C)C=CC(=O)C=C12`, the Ki was 0.0025 µM.

Regarding `C[C@]12CC[C@@H]3c4cc(NC(=O)c5ccncc5)c(O)cc4CC[C@H]3[C@@H]1CCC2=O`, the inhibition constant Ki was found to be 2.1 µM.

In the case of `CCCCCCC1=C[C@@]2(C)C(=C(O)C1=O)CC[C@@H]1[C@@H]2CC[C@]2(C)C(=O)CC[C@@H]12`, the Ki amounted to 0.031 µM.

`Cc1cc2c(cc1O)CC[C@@H]1[C@@H]2CC[C@]2(C)[C@@H](O)CC[C@@H]12` displayed an inhibitory constant (Ki) of 0.1 µM.

Take `C[C@]12CCC(=O)C=C1[C@H](CCCCc1ccccc1)C[C@@H]1[C@@H]2CC[C@]2(C)C(=O)CC[C@@H]12`: the Ki worked out at 0.016 µM.

With `C[C@]12CC[C@H]3[C@@H](C(=O)[C@H]4O[C@]45C(=O)CCC[C@]35C=O)[C@@H]1CCC2=O`, the Ki amounted to 5 µM.

With `C[C@]12CCC(=O)C=C1C(Cc1ccccc1)=C[C@@H]1[C@@H]2CC[C@]2(C)C(=O)CC[C@@H]12`, affinity was put at a Ki of 0.009 µM. Against the preceding compound, the Ki is about 560-fold lower.

`CCCCC1=C[C@@H]2[C@H](CC[C@]3(C)C(=O)CC[C@@H]23)[C@@]2(C)C=CC(=O)C=C12` had an inhibition constant Ki of 0.0025 µM. Against the preceding compound, the Ki is about 3.6-fold lower.

The compound `CC(=O)O[C@H]1C[C@@H]2[C@H](CC[C@]3(C)C(=O)CC[C@@H]23)[C@@]2(C)CCCC=C12` showed a Ki of 0.012 µM.

`C[C@]12CCC(=O)C=C1C(c1ccc(OS(N)(=O)=O)cc1)=C[C@@H]1[C@@H]2CC[C@]2(C)C(=O)CC[C@@H]12` returned an inhibition constant Ki of 0.03 µM.

As to `C[C@]12CC[C@@H]3c4ccc(O)cc4[C@@H](Cc4ccccc4)C[C@H]3[C@@H]1CC[C@@H]2O`, the Ki came out at 0.1 µM.

Take `CCCCCC(=O)O[C@H]1C[C@@H]2[C@H](CC[C@]3(C)C(=O)CC[C@@H]23)[C@@]2(C)CCC(=O)C=C12`: the Ki was found to be 0.007 µM. This Ki is about 14-fold lower than that of the compound before.

`C[C@]12CC[C@@H]3c4ccc(O)cc4[C@@H](Cc4ccccc4)C[C@H]3[C@@H]1CCC2=O`: affinity was put at a Ki of 0.1 µM.

Regarding `C[C@]12CCCC(=O)C1=CC[C@@H]1[C@@H]2CC[C@]2(C)C(=O)CC[C@@H]12`, the Ki is 0.12 µM.

On to `CCCCCCCC[C@H]1C[C@@H]2[C@H](CC[C@]3(C)C(=O)CC[C@@H]23)[C@@]2(C)CCC(=O)C=C12`, for which affinity was put at a Ki of 0.0093 µM. Against the preceding compound, the Ki is about 13-fold lower.

Compound `C[C@]12CC[C@@H]3c4ccc(O)cc4[C@H](Cc4ccccc4)C[C@H]3[C@@H]1CCC2=O` returned a Ki of 0.1 µM.

As to `C[C@@H]1C[C@@H]2[C@H](CC[C@]3(C)C(=O)CC[C@@H]23)[C@@]2(C)CCCC=C12`, the inhibition constant Ki amounted to 0.0053 µM.

Take `C[C@]12CCC(=O)C=C1[C@@H](CCc1ccccc1)C[C@@H]1[C@@H]2CC[C@]2(C)C(=O)CC[C@@H]12`: the Ki worked out at 0.016 µM.

For the compound `C[C@]12C=CC(=O)C=C1C=C[C@@H]1[C@@H]2CC[C@]2(C)C(=O)CC[C@@H]12`, the affinity corresponds to a Ki of 0.0025 µM. This Ki is about 6.4-fold lower than that of the compound before.

Regarding `C[C@@H]1C[C@@H]2[C@H](CC[C@]3(C)[C@@H](O)CC[C@@H]23)c2ccc(O)cc21`, the affinity, expressed as Ki, was 0.1 µM.

The compound `C[C@]12CC[C@H]3[C@@H](CC(=O)[C@]45O[C@H]4C(=O)CC[C@]35C=O)[C@@H]1CCC2=O` came in with a Ki of 5 µM.

The compound `C[C@]12CC[C@@H]3c4cc(Cl)c(O)cc4CC[C@H]3[C@@H]1CCC2=O` returned a Ki of 0.1 µM.

Take `C[C@]12CCC(=O)C=C1C(CCc1ccccc1)=C[C@@H]1[C@@H]2CC[C@]2(C)C(=O)CC[C@@H]12`: the affinity, expressed as Ki, was 0.01 µM.

The compound `C[C@H]1C[C@@H]2[C@H](CC[C@]3(C)[C@@H](O)CC[C@@H]23)c2ccc(O)cc21` yielded a Ki of 0.1 µM. This Ki is about 10-fold higher than that of the compound before.

`CC(=O)OC1=C2CC[C@@H]3[C@H](CC[C@]4(C)C(=O)CC[C@@H]34)[C@@]2(C)CCC1` returned a Ki of 0.06 µM.

In turn, `CO[C@H]1C[C@@H]2[C@H](CC[C@]3(C)C(=O)CC[C@@H]23)[C@@]2(C)CCCC=C12` yielded an inhibition constant (Ki) of 0.012 µM. This Ki lies about 5-fold lower than the previous one.

For the compound `CCCCCCCC[C@@H]1C[C@@H]2[C@H](CC[C@]3(C)C(=O)CC[C@@H]23)[C@@]2(C)CCC(=O)C=C12`, affinity was put at a Ki of 0.0028 µM.

Take `C[C@]12CC[C@@H]3c4ccc(O)cc4[C@@H](CCCc4ccccc4)C[C@H]3[C@@H]1CC[C@@H]2O`: the affinity, expressed as Ki, was 0.1 µM.

For the compound `CC[C@H]1C[C@@H]2[C@H](CC[C@]3(C)C(=O)CC[C@@H]23)[C@@]2(C)CCCC=C12`, the inhibition constant (Ki) was determined as 0.012 µM.

In turn, `C[C@]12CC[C@H]3[C@@H](CC=C4C=CCC[C@@]43C)[C@@H]1CC[C@@H]2O` showed a Ki of 0.058 µM.

For `CO[C@@H]1C[C@@H]2[C@H](CC[C@]3(C)C(=O)CC[C@@H]23)[C@@]2(C)CCCC=C12`, the inhibition constant Ki was 0.012 µM.

Compound `COC1=C[C@@]2(C)C(=CC1=O)CC[C@@H]1[C@@H]2CC[C@]2(C)C(=O)CC[C@@H]12` showed an inhibition constant (Ki) of 0.095 µM.

Regarding `CCCCCCCC1=C[C@@H]2[C@H](CC[C@]3(C)C(=O)CC[C@@H]23)[C@@]2(C)CCC(=O)C=C12`, the affinity, expressed as Ki, was 0.017 µM.

The compound `C[C@]12CC[C@@H]3c4cc(Cl)c(O)cc4CC[C@H]3[C@@H]1CC[C@@H]2O` showed a Ki of 0.1 µM.

`CCCC1=C[C@@H]2[C@H](CC[C@]3(C)C(=O)CC[C@@H]23)[C@@]2(C)CCC(=O)C=C12`: the Ki was 0.017 µM.

On to `CCCCCC1=C[C@@H]2[C@H](CC[C@]3(C)C(=O)CC[C@@H]23)[C@@]2(C)C=CC(=O)C=C12`, for which the affinity corresponds to a Ki of 0.0025 µM.

`C[C@]12CC[C@H]3[C@@H](CC=C4CCCC[C@@]43C)[C@@H]1CC[C@@H]2O` came in with a Ki of 0.058 µM.

`C[C@]12C=CC(=O)C=C1C(c1ccc(OS(N)(=O)=O)cc1)=C[C@@H]1[C@@H]2CC[C@]2(C)C(=O)CC[C@@H]12` showed a Ki of 0.056 µM.

Consider `C[C@]12CC[C@@H]3c4cc(F)c(O)cc4CC[C@H]3[C@@H]1CCC2=O`, for which affinity was put at a Ki of 0.1 µM.

Take `CCCC1=C[C@@H]2[C@H](CC[C@]3(C)C(=O)CC[C@@H]23)[C@@]2(C)C=CC(=O)C=C12`: the inhibition constant (Ki) was found to be 0.0025 µM.

Consider `C[C@H]1C[C@@H]2[C@H](CC[C@]3(C)C(=O)CC[C@@H]23)[C@@]2(C)CCCC=C12`, for which the Ki came out at 0.0031 µM.

`CCCCC[C@H]1C[C@@H]2[C@H](CC[C@]3(C)C(=O)CC[C@@H]23)[C@@]2(C)CCC(=O)C=C12` displayed a Ki of 0.0093 µM.

As for `C[C@]12CCC(=O)C=C1[C@@H](c1ccc(OS(N)(=O)=O)cc1)C[C@@H]1[C@@H]2CC[C@]2(C)C(=O)CC[C@@H]12`, the Ki stood at 0.039 µM.

In the case of `C[C@]12CC[C@@H]3c4ccc(O)cc4CC[C@H]3[C@@H]1CCC2=O` [ESTRONE], the inhibition constant Ki worked out at 2.5 µM.

The compound `C[C@]12C=CC(=O)C=C1C(CCc1ccccc1)=C[C@@H]1[C@@H]2CC[C@]2(C)C(=O)CC[C@@H]12` showed a Ki of 0.0085 µM.

The compound `C[C@]12CC[C@@H]3c4ccc(O)cc4[C@H](Cc4ccccc4)C[C@H]3[C@@H]1CC[C@@H]2O` displayed a Ki of 0.1 µM.

The compound `C[C@]12CCC(=O)C=C1[C@@H](OCc1ccccc1)C[C@@H]1[C@@H]2CC[C@]2(C)C(=O)CC[C@@H]12` displayed an inhibition constant Ki of 0.007 µM.

In turn, `C[C@]12CC[C@@H]3c4cc(Br)c(O)cc4CC[C@H]3[C@@H]1CC[C@@H]2O` registered an inhibition constant Ki of 0.1 µM.

Take `CCCCC1=C[C@@H]2[C@H](CC[C@]3(C)C(=O)CC[C@@H]23)[C@@]2(C)CCC(=O)C=C12`: affinity was put at a Ki of 0.017 µM. Against the preceding compound, the Ki is about 5.9-fold lower.

`CCCCCC[C@H]1C[C@@H]2[C@H](CC[C@]3(C)C(=O)CC[C@@H]23)[C@@]2(C)CCC(=O)C=C12`: the affinity corresponds to a Ki of 0.0093 µM.

For `C[C@]12CC[C@@H]3c4cc(F)c(O)cc4CC[C@H]3[C@@H]1CC[C@@H]2O`, the Ki worked out at 0.1 µM.

The compound `Cc1cc2c(cc1O)CC[C@@H]1[C@@H]2CC[C@]2(C)C(=O)CC[C@@H]12` came in with a Ki of 0.1 µM.

In turn, `C[C@]12CC[C@H]3[C@@H](CC(=O)[C@]45O[C@H]4C(=O)CC[C@]35C)[C@@H]1CCC2=O` registered a Ki of 5 µM. This Ki lies about 50-fold higher than the previous one.

Compound `CC1(C)C[C@@]2(C)C(=CC1=O)[C@H](Br)C[C@@H]1[C@@H]2CC[C@]2(C)C(=O)CC[C@@H]12` came in with a Ki of 0.01 µM.

Compound `C[C@]12CC[C@H]3[C@@H](CC[C@]45O[C@H]4C(=O)CC[C@]35C=O)[C@@H]1CCC2=O` gave a Ki of 5 µM.

In turn, `C[C@]12CCCC(OC(=O)c3ccccc3)=C1CC[C@@H]1[C@@H]2CC[C@]2(C)C(=O)CC[C@@H]12` registered a Ki of 0.07 µM.
